The test system of the experiment is Plasmodium falciparum. In words: GSK_TCMDC: Inhibition of Plasmodium falciparum 3D7 in whole erythrocytes, using parasite LDH activity as an index of growth. The experiment is classed as functional, organism-based.

In the case of `O=C(Nc1cccc(-c2nn3ccccc3c2-c2ccnc(Nc3ccccc3)n2)c1)c1cc(F)ccc1F`, where the note is “Plasmodium falciparum, 3D7”, the XC50 was 953 nM.
`CCN(CC)CCCC(C)Nc1ccnc2cc(C#N)ccc12` (stereo not drawn): for the setting “Plasmodium falciparum, 3D7”, the XC50 turned out to be 139 nM.
Regarding `CC1(C)NC(N)=NC(=N)N1OCCc1cccc2ccccc12`, for the setting “Plasmodium falciparum, 3D7”, the XC50 amounted to 3.2 nM.
Regarding `COc1ccc(CN(C)CCCc2ccc(NC(=O)c3cc4ccccc4[nH]3)cc2)cc1OC`, the XC50 (Plasmodium falciparum, 3D7) was 725 nM.
With `Cc1[nH]c2cc(F)ccc2c(=O)c1Cc1ccc(Cl)cc1.Cc1[nH]c2cccc(F)c2c(=O)c1Cc1ccc(Cl)cc1`, the XC50 worked out at 232 nM. This molecule also gave an XC50 (Plasmodium falciparum, 3D7) of 348 nM.
For `Cc1cc(NC(=O)c2cccs2)ccc1OC1CCN(Cc2ccc(F)cc2)C1` (stereo not drawn), the XC50 (Plasmodium falciparum, 3D7) is 669 nM.
The same measure, in the same setting: the value for `CN1CCc2cc(NC(=O)c3cc4ccccc4s3)cc(-c3ccccc3)c2CC1` was 885 nM.
For the setting “Plasmodium falciparum, 3D7”, `COc1ccc(NC(=O)N2CCN(CCCCCNC(=O)/C=C/c3ccc(C(F)(F)F)cc3)CC2)cc1Cl` displayed an XC50 of 859 nM.
As to `CN1CCN(c2ccnc3ccc(NC(=O)Nc4ccc5ccccc5c4)cc23)CC1`, the XC50 (Plasmodium falciparum, 3D7) stood at 76.6 nM.
The molecule `CCN(CCCN1CCCCC1)c1cc(C)nc(Nc2cccc3c2CCCC3)n1` registered an XC50 (Plasmodium falciparum, 3D7) of 1030 nM.
Still for that read-out and setting: for `NC(=O)c1cccc(C(=O)Nc2cccc(-c3cccc(-c4nc5cc(C(F)(F)F)ccc5[nH]4)c3)c2)c1` the value was 126 nM; for `O=C(/C=C/c1ccc(Cl)c(Cl)c1)NCCCCCCN1CCCN(C(=O)Nc2ccc(C(F)(F)F)cc2)CC1`, 579 nM.
`COc1cc(NCCCNC(=O)c2ccc(Cl)c(Cl)c2)nc2ccccc12`: the XC50 (Plasmodium falciparum, 3D7) was determined as 137 nM.
With `Cn1cncc1C(=O)Nc1cccc(-c2cccc(-c3nc4cc(F)ccc4[nH]3)c2)c1`, the XC50 (Plasmodium falciparum, 3D7) is 493 nM.
`O=C(NCCCCCN1CCC(c2c[nH]c3ccccc23)CC1)c1ccc(-c2ccccc2)nc1`: the XC50 (Plasmodium falciparum, 3D7) was determined as 1020 nM.
In turn, `COc1ccc(Nc2nc(NCc3cccc(NS(C)(=O)=O)c3)cc(-c3ccc(OC)cc3)n2)cc1` returned an XC50 (Plasmodium falciparum, 3D7) of 1220 nM.
For the molecule `CCc1ccc(Cc2cnc3nc(N)nc(N)c3c2C)cc1`, the XC50 (Plasmodium falciparum, 3D7) stood at 202 nM.
Turning to `Cc1cccc2nc(-c3cccc(-c4cccc(NC(=O)CCc5c[nH]cn5)c4)c3)[nH]c12`, the XC50 (Plasmodium falciparum, 3D7) was found to be 553 nM.
Where the note is “Plasmodium falciparum, 3D7”, `COc1cccc(Nc2nccc(NCC(O)c3cccc(C(F)(F)F)c3)n2)c1` (stereo not drawn) came in with an XC50 of 702 nM.
The molecule `Oc1ccccc1CN1CCCC(COC(c2ccc(F)cc2)c2ccc(F)cc2)C1` (stereo not drawn) gave an XC50 (Plasmodium falciparum, 3D7) of 775 nM.
For the molecule `CCOC(=O)NC1=NC(C)(C)N(OCc2ccc(Cl)c(Cl)c2)C(NC(=O)OCC)=N1`, the XC50 (Plasmodium falciparum, 3D7) stood at 278 nM.
As to `Nc1ccc(-c2ccc3ccnc(N)c3c2)cc1`, where the note is “Plasmodium falciparum, 3D7”, the XC50 came to 682 nM.
Same read-out and setting: the value for `CCOc1cc(C(=O)N[C@@H](Cc2ccccc2)[C@H](O)CNCc2cc(OC)cc(OC)c2)cc(N2CCCCS2(=O)=O)c1` was 519 nM.
Where the note is “Plasmodium falciparum, 3D7”, `CCCCCCCCc1nc(C)c(Br)c(O)c1Br` displayed an XC50 of 178 nM.
Where the note is “Plasmodium falciparum, 3D7”, `Nc1nc2c(ncn2OC[C@H]2COP(=O)(O)CO2)c(=O)[nH]1` had an XC50 of 569 nM.
In turn, `CCCc1c(C(=O)Nc2ccc3c(c2)CCN(C2CCC2)CC3)cnn1-c1ccc(Cl)cc1` yielded an XC50 (Plasmodium falciparum, 3D7) of 858 nM.
For the molecule `Nc1c(I)cc(C(=O)Nc2ccc3nc4c(c(N)c3c2)CCCC4)cc1I`, the XC50 (Plasmodium falciparum, 3D7) amounted to 143 nM.
`CN1CCc2cc(O)c(NS(=O)(=O)c3ccc(-c4ccc(Cl)cc4)cc3)cc2CC1` registered an XC50 (Plasmodium falciparum, 3D7) of 767 nM.
Under “Plasmodium falciparum, 3D7”, `O=C(NC1CCN(CC2(c3ccc(Cl)cc3)CCC2)CC1)c1cscn1` showed an XC50 of 535 nM.
Consider `c1ccc(-c2ccc3c(Nc4ccc5[nH]ncc5c4)ccnc3c2)nc1`, for which, under “Plasmodium falciparum, 3D7”, the XC50 was 822 nM.
The same measure, in the same setting: for `CSc1ccc(CN2CCC(NC(=O)c3ccc(-c4cccc(C(F)(F)F)c4)s3)CC2)cc1` the value was 1220 nM; for `CCCc1cc(OC)c(CC2c3cc(O)c(Cl)cc3CCN2C)cc1OC` (stereo not drawn), 575 nM; for `CCC(ON1C(N)=NC(N)=NC1(C)C)c1ccc(Cl)cc1` (stereo not drawn), 3.2 nM.
For `CN(C)C(=S)N/N=C1/C(=O)Nc2ccc(OC(F)(F)F)cc21`, under “Plasmodium falciparum, 3D7”, the XC50 is 1020 nM.
For the setting “Plasmodium falciparum, 3D7”, `COc1cc2c(cc1C(F)(F)F)N(C(=O)Nc1cc(OC(F)(F)F)cc(-c3cccnc3)c1)CC2` showed an XC50 of 41.5 nM.
Still for that read-out and setting: the value for `CCCCN(CCCC)CCCCCCNc1c2ccccc2nc2ccccc12` was 776 nM; that for `c1ccc(Oc2ccc(Nc3ccnc4ccc(-c5ccco5)cc34)cc2)cc1` was 928 nM; that for `CC(C)(C)c1ccc(C(=O)N2CCC3(CC2)C(=O)N(CC(=O)NCC2CCCO2)CN3c2ccccc2)cc1` (stereo not drawn) was 231 nM.
The same measure, in the same setting: for `CCc1cn2c3c(cc(C(=O)N[C@@H](Cc4ccccc4)[C@H](O)CNC4CCOCC4)cc13)N(CC(F)(F)F)S(=O)(=O)CC2` the value was 29.6 nM; for `COc1cc2nc(NCCc3cccc(Cl)c3)nc(NCc3ccccc3)c2cc1OC`, 124 nM; for `Cc1[nH]n(-c2cccc(Cl)c2)c(=O)c1-c1ccc(Cl)cc1`, 929 nM.
Take `CC(C)CNCc1ccc(-c2ccc(CN(C(=O)NC3CCCCC3)C3CCN(Cc4ccccc4)CC3)cc2)cc1`: the XC50 (Plasmodium falciparum, 3D7) was 785 nM.
`CC(=O)Nc1ccc2[nH]cc(C3CCN(CC4CCN(C(=O)/C=C/c5ccc(Cl)c(Cl)c5)CC4)CC3)c2n1` returned an XC50 (Plasmodium falciparum, 3D7) of 161 nM.
Still for that read-out and setting: for `CN1CCCC1CNS(=O)(=O)c1ccc(C(=O)NCC2CC2)cc1` (stereo not drawn) the value was 174 nM; for `CCN(CC)CCNC(=O)c1ccc(N/C=C2\C(=O)Nc3ccc(S(=O)(=O)Cc4c(Cl)cccc4Cl)cc32)cc1`, 840 nM; for `COc1ccc2[nH]ccc(=NN=Cc3ccc(Cl)cc3)c2c1`, 211 nM.
Molecule `O=C(CCc1ccco1)NC1CCN(CC2(c3ccc(Cl)cc3)CCC2)CC1` displayed an XC50 (Plasmodium falciparum, 3D7) of 1450 nM.
The molecule `C=C(C)CSc1nc2c(c(=O)n1Cc1ccco1)C1(CCCCC1)Cc1ccccc1-2` registered an XC50 (Plasmodium falciparum, 3D7) of 997 nM.
`CN1CCC(N(Cc2ccc(-c3cnc(NCc4ccccc4)nc3)cc2)S(=O)(=O)c2ccccc2)CC1` returned an XC50 (Plasmodium falciparum, 3D7) of 777 nM.
As for `O=C(NC1CCC(CN2CCC(c3c[nH]c4ccccc34)CC2)CC1)c1csc(-c2cccc(Cl)c2Cl)n1` (stereo not drawn), the XC50 (Plasmodium falciparum, 3D7) is 1730 nM.
For the molecule `C=C(NC(=O)c1cc(C)cc(C)c1)C(=O)OC`, the XC50 (Plasmodium falciparum, 3D7) is 174 nM.
Take `O=C(Cn1c(CCc2cccc(F)c2F)cc(=O)c2ccccc21)N(CCN1CCCC1)Cc1ccc(-c2ccc(C(F)(F)F)cc2)cc1`: the XC50 (Plasmodium falciparum, 3D7) came to 859 nM.
As for `CCCNC(=O)C1Cc2c([nH]c3ccc(Br)cc23)C2(CCN(CCc3ccccc3)CC2)N1` (stereo not drawn), where the note is “Plasmodium falciparum, 3D7”, the XC50 was 678 nM.
Under “Plasmodium falciparum, 3D7”, `CCc1cn2c3c(cc(C(=O)N[C@@H](Cc4cc(F)cc(F)c4)[C@H](O)CNC4CC4)cc13)N(C)S(=O)(=O)CC2` gave an XC50 of 119 nM.
On to `O=C(c1ccc(Br)o1)N1N=C(c2cccs2)CC1c1ccc(Br)cc1` (stereo not drawn), for which, where the note is “Plasmodium falciparum, 3D7”, the XC50 was determined as 513 nM.
The same measure, in the same setting: the value for `COc1cc2ncnc(NCCc3ccccc3Cl)c2cc1OC` was 1120 nM; that for `Cc1cc(C)n(-c2nc(Nc3cccc(C(F)(F)F)c3)nc(-n3nc(C)cc3C)n2)n1` was 362 nM; that for `CC(Cc1ccc(NC(=O)c2ccc(CNCCCCc3ccccc3)cc2)cc1)NCCc1cccc(Cl)c1` (stereo not drawn) was 334 nM.
On the same count and under the same terms, for `CN1CC=C(c2csc3ccc(NC(=O)Nc4ccc(-c5ccncc5)c5ccccc45)cc23)CC1` the value was 804 nM; for `Cc1ccc(O)cc1Nc1ccnc2cc(-c3ccccn3)ccc12` [GW440139A], 761 nM.
For `O=C(/C=C/c1ccc(Cl)c(Cl)c1)NC1CCC(CN2CCC(c3c[nH]c4cc(O)ccc34)CC2)CC1` (stereo not drawn), the XC50 (Plasmodium falciparum, 3D7) was 813 nM.
Under “Plasmodium falciparum, 3D7”, `CN(C)CCN1CCN(CCCN2c3ccccc3Sc3ccc(C(F)(F)F)cc32)CC1` gave an XC50 of 762 nM.

(Values after ChEMBL document CHEMBL1157539, “Thousands of chemical starting points for antimalarial lead identification” (Nature, 2010).)
